# From publication PMC8472913 (Viruses, 2021)
# Like-named read-outs stand apart in the source and are kept apart here.
# Columns and labels:
# [1] = tested on: Murine norovirus (MNV, strain MNV 1.CW1); test: MNV-induced CPE reduction assay (MTS) in RAW 264.7 cells; type: cell-based; conditions: for selectivity index (SI): MNV, CC50/EC50
# HuNoV GI.1 replicon [2] = test: HuNoV GI.1 replicon assay in HGT cells (RT-qPCR); type: cell-based, Human norovirus
# [3] = molecular target: mutated GI.1 proteases (A105V, I109V, A105V/I109V) (Norovirus, UniProt Q83883, A1205V); test: Cell-based FRET protease assay, mutated GI.1 proteases; set-up: species or system Human norovirus; conditions: versus WT
# [4] = molecular target: mutated GI.1 proteases (A105V, I109V, A105V/I109V) (Norovirus, UniProt Q83883, A1205V/I1209V); test: as above; set-up: species or system Human norovirus; conditions: versus WT
# [5] = molecular target: mutated GI.1 proteases (A105V, I109V, A105V/I109V) (Norovirus, UniProt Q83883, I1209V); test: as above; set-up: species or system Human norovirus; conditions: versus WT
# [6] = tested on: HuNoV GI.1 replicon variants; test: Generation of drug-resistant HuNoV GI.1 replicon variants; type: cell-based, Human norovirus; conditions: for EC50: Norovirus
# GII protease = GII protease (Lordsdale virus, UniProt P54634); test: Cell-based FRET protease assay, GII protease; set-up: species or system norovirus
# [7] = tested on: Murine norovirus (MNV, strain MNV 1.CW1); set-up: method as in earlier work; conditions: read-out: EC50 against MNV; cited from earlier work
# GV protease = GV protease (Norovirus, UniProt Q80J95); test: Cell-based FRET protease assay, GV protease
# GI.1 protease = GI.1 protease (Norovirus, UniProt Q83883); test: Cell-based FRET protease assay, GI.1 protease; set-up: species or system Human norovirus
# [8] = Pharmacokinetic studies in mice; type: in vivo; conditions: CD-1 mice; for AUC(0-t) / Cmax / Tmax / bioavailability / half-life / AUC(0-inf) / MRT inf / clearance: male, mouse, serum; for AUC(0-inf): read-out: AUCINF_obs; for MRT inf: read-out: MRTINF_obs; for clearance: read-out: CL_obs
# HGT cells = test: Adverse effects on host cells of the HuNoV GI.1 replicon assay; type: cell-based; conditions: up to the highest tested concentration of 100 µM
# [9] = Cytotoxicity assay (MTS) in RAW 264.7 cells; type: cell-based; conditions: mouse
# [10] = tested on: Murine norovirus (MNV, strain MNV 1.CW1); test: MNV virus yield assay, viral RNA by RT-qPCR; type: cell-based; conditions: Norwalk virus, RAW264.7, RAW 264.7 cells
# Water solubility = type: physicochemical
# [11] = tested on: compound 4res MNV variant; test: Generation of drug-resistant MNV variants; type: cell-based, Murine norovirus; conditions: after 25 passages (6 months)
# HuNoV GI.1 replicon [12] = test: HuNoV GI.1 replicon clearance assay; type: cell-based, Human norovirus; conditions: for reduction in HuNoV GI.1 RNA: 10 µM
# [13] = Norwalk virus, RAW264.7, read-out: MNV-EC50
# [14] = Norovirus, HuNoV replicon, read-out: HuNoV-EC50
# [15] = selection pressure: 10 µM of rupintrivir
# [16] = selection pressure: 14 µM of rupintrivir
# [17] = selection pressure: DMSO control
# [18] = selection pressure: 6 µM of compound 4
# [19] = selection pressure: 10 µM of compound 4
# [20] = selection pressure: 16 µM of compound 4
structure (smiles),measurement,setting,value
CC(C)C(NC(=O)c1cc2ccccc2o1)C(=O)N[C@@H](CC1CCCCC1)C(=O)N[C@H](C=O)C[C@@H]1CCNC1=O (stereo partly drawn) [10c],EC50,[1]; [13],0.094 ± 0.014 µM
same,EC50,HuNoV GI.1 replicon [2]; [14],0.016 ± 0.006 µM
"CCOC(=O)/C=C/[C@H](C[C@@H]1CCNC1=O)NC(=O)[C@@H](CC(=O)[C@@H](NC(=O)c1cc(C)on1)C(C)C)Cc1ccc(F)cc1 [rupintrivir, Rupintrivir, reference compound]","shift in IC50 value, A105V mutation in GI.1 protease",[3],significant shift
same,"shift in IC50 value, A105V/I109V mutation in GI.1 protease",[4],significant shift
same,"reduction of GI.1 protease sensitivity, single I109V mutation",[5],did not result in a significant reduction
same,EC50,[6]; [15],9.4 ± 0.5 µM
same,EC50,[6]; [16],15 ± 3 µM
same,EC50,[6]; [17],1 ± 0.1 µM
same,Fold Change in EC50,[6]; [15],9.3
same,Fold Change in EC50,[6]; [16],15
same,Fold Change in EC50,"[6]; selection pressure: 14 µM of rupintrivir, listed as Rupintrivir",15.2
same,IC50,"GII protease; FRET, HEK293T cells, WT protease, read-out: IC50, GII protease",12.2 µM
same,EC50,[7],13 ± 2 µM
same,IC50,GV protease,4.6 µM
same,IC50,"GI.1 protease; FRET, HEK293T cells, WT protease, read-out: IC50, GI.1 protease",3 µM
CC(C)C(NC(=O)c1cc2ccccc2[nH]1)C(=O)NC(CC1CCCCC1)C(=O)NC(C=O)CC1CCNC1=O (stereo not drawn) [10b],EC50,[1]; [13],0.23 ± 0.11 µM
same,EC50,HuNoV GI.1 replicon [2]; [14],0.016 ± 0.009 µM
CC(C)C(NC(=O)c1ccc2ccccc2n1)C(=O)N[C@@H](CC1CCCCC1)C(=O)N[C@H](C=O)C[C@@H]1CCNC1=O (stereo partly drawn) [10d],selectivity index (SI),[1],> 1000
same,EC50,[1]; [13],0.037 ± 0.016 µM
same,"bioavailability, in words",[8],good
same,"half-life (T1/2), in words",[8],long
same,"maximal concentration (Cmax), in words",[8],high
same,Vss_obs,[8]; i.v. (5 mg/kg),3.867 ± 0.758 L/kg
same,AUC(0-t),"[8]; ip, i.p. (20 mg/kg)",10800 ng·h/mL
same,Cmax,"[8]; ip, i.p. (20 mg/kg)",12700 ng/mL
same,Tmax,"[8]; ip, i.p. (20 mg/kg)",0.25 h
same,bioavailability,"[8]; ip, i.p. (20 mg/kg)",150%
same,half-life,"[8]; ip, i.p. (20 mg/kg)",4.26 ± 0.24 h
same,AUC(0-inf),"[8]; ip, i.p. (20 mg/kg)",10800 ng·h/mL
same,MRT inf,"[8]; ip, i.p. (20 mg/kg)",1.34 ± 0.29 h
same,AUC(0-t),"[8]; iv, i.v. (5 mg/kg)",1800 ± 63 ng·h/mL
same,half-life,"[8]; iv, i.v. (5 mg/kg)",5.64 ± 1.63 h
same,AUC(0-inf),"[8]; iv, i.v. (5 mg/kg)",1810 ± 67 ng·h/mL
same,clearance,"[8]; iv, i.v. (5 mg/kg)",46 ± 1.7 mL/min/kg
same,MRT inf,"[8]; iv, i.v. (5 mg/kg)",1.4 ± 0.23 h
same,AUC(0-t),"[8]; sc, s.c. (5 mg/kg)",1840 ± 717 ng·h/mL
same,Cmax,"[8]; sc, s.c. (5 mg/kg)",1570 ± 582 ng/mL
same,Tmax,"[8]; sc, s.c. (5 mg/kg)",0.42 ± 0.29 h
same,bioavailability,"[8]; sc, s.c. (5 mg/kg)",102%
same,half-life,"[8]; sc, s.c. (5 mg/kg)",6.02 ± 0.92 h
same,AUC(0-inf),"[8]; sc, s.c. (5 mg/kg)",1860 ± 718 ng·h/mL
same,MRT inf,"[8]; sc, s.c. (5 mg/kg)",1.7 ± 0.16 h
same,adverse effects on the host cells,HGT cells,without adverse effects
same,EC50,HuNoV GI.1 replicon [2]; [14],0.012 ± 0.01 µM
same,fold more potent (EC50),HuNoV GI.1 replicon [2]; versus the initial hit,about 100 fold
same,"change in IC50 value, A105V/I109V mutation",[4]; GI.1 protease,1.6 fold
same,"shift in IC50 value, I109V mutation",[5]; GI.1 protease,2.5 fold
same,CC50,[9],48 ± 3 µM
same,EC50,[10],0.03 ± 0.01 µM
same,IC50,GII protease,0.12 µM
same,"improvement in the FRET assay, GII protease",GII protease; versus the initial hit,~ 300 fold
same,water solubility,Water solubility,low water solubility
same,IC50,GV protease,0.49 µM
same,IC50,GI.1 protease,0.09 µM
same,"improvement in the FRET assay, GI protease",GI.1 protease; versus the initial hit,~ 300 fold
Cc1cc(C(=O)NC(C(=O)NC(CC2CCCCC2)C(=O)NC(C=O)CC2CCNC2=O)C(C)C)no1 (stereo not drawn) [10a],EC50,[1]; [13],3.8 ± 0.97 µM
same,EC50,HuNoV GI.1 replicon [2]; [14],0.24 ± 0.11 µM
O=C[C@H](C[C@@H]1CCNC1=O)NC(=O)[C@H](CC1CCCCC1)NC(=O)c1ccc2ccccc2n1 [compound 4],selectivity index (SI),[1],35.6
same,EC50,"[1]; Norwalk virus, RAW264.7, RAW 264.7 cells, MTS, read-out: EC50, MNV-induced CPE",~1 µM
same,EC50,"[1]; RAW 264.7 cells, MTS, read-out: EC50, MNV-induced CPE",0.7 ± 0.2 µM
same,"area under the curve (AUC) value, in words",[8],high
same,"bioavailability, in words",[8],good
same,"half-life (T1/2), in words",[8],moderate
same,"maximal concentration (Cmax), in words",[8],high
same,Vss_obs,[8]; i.v. (5 mg/kg),1.498 ± 0.714 L/kg
same,AUC(0-t),"[8]; ip, i.p. (20 mg/kg)",14900 ng·h/mL
same,Cmax,"[8]; ip, i.p. (20 mg/kg)",14500 ng/mL
same,Tmax,"[8]; ip, i.p. (20 mg/kg)",0.25 h
same,bioavailability,"[8]; ip, i.p. (20 mg/kg)",72.1%
same,half-life,"[8]; ip, i.p. (20 mg/kg)",5.11 ± 1.07 h
same,AUC(0-inf),"[8]; ip, i.p. (20 mg/kg)",15000 ng·h/mL
same,MRT inf,"[8]; ip, i.p. (20 mg/kg)",1.4 ± 0.06 h
same,AUC(0-t),"[8]; iv, i.v. (5 mg/kg)",5160 ± 1320 ng·h/mL
same,half-life,"[8]; iv, i.v. (5 mg/kg)",5.5 ± 0.85 h
same,AUC(0-inf),"[8]; iv, i.v. (5 mg/kg)",5190 ± 1300 ng·h/mL
same,clearance,"[8]; iv, i.v. (5 mg/kg)",16.8 ± 4.4 mL/min/kg
same,MRT inf,"[8]; iv, i.v. (5 mg/kg)",1.44 ± 0.3 h
same,AUC(0-t),"[8]; sc, s.c. (5 mg/kg)",4060 ± 1140 ng·h/mL
same,Cmax,"[8]; sc, s.c. (5 mg/kg)",2200 ± 894 ng/mL
same,Tmax,"[8]; sc, s.c. (5 mg/kg)",0.58 ± 0.29 h
same,bioavailability,"[8]; sc, s.c. (5 mg/kg)",78.6%
same,half-life,"[8]; sc, s.c. (5 mg/kg)",5.63 ± 0.4 h
same,AUC(0-inf),"[8]; sc, s.c. (5 mg/kg)",4110 ± 1140 ng·h/mL
same,MRT inf,"[8]; sc, s.c. (5 mg/kg)",2.95 ± 0.53 h
same,adverse effects on the host cells,HGT cells,no adverse effects
same,"shift in EC50, MNV compound 4res variant",[11],4.5 fold
same,EC50,"HuNoV GI.1 replicon [2]; HGT cells, 72 h, replicon RNA relative to β actin, read-out: EC50, HuNoV GI.1 replicon",1.2 ± 0.6 µM
same,"shift in IC50 value, A105V mutation in GI.1 protease",[3],not
same,"shift in IC50 value, A105V/I109V mutation in GI.1 protease",[4],not
same,"reduction of GI.1 protease sensitivity, single I109V mutation",[5],did not result in a significant reduction
same,CC50,[9],25.3 ± 6.1 µM
same,EC50,[10],1.7 ± 0.6 µM
same,EC50,[6]; [18],3.8 µM
same,EC50,[6]; [19],4.3 µM
same,EC50,[6]; [20],11.5 ± 0.9 µM
same,EC50,[6]; [17],0.8 ± 0.3 µM
same,Fold Change in EC50,[6]; [18],4.5
same,Fold Change in EC50,[6]; [19],5.2
same,Fold Change in EC50,[6]; [20],13.8
same,reduction in HuNoV GI.1 RNA,HuNoV GI.1 replicon [12]; after three passages,3 log10
same,reduction in HuNoV GI.1 RNA,HuNoV GI.1 replicon [12]; after two passages,2 log10
same,clearance of the HuNoV GI.1 replicon from cells,"HuNoV GI.1 replicon [12]; two consecutive treatments with 10 µM, rebound with G418",could clear cells from the HuNoV GI.1 replicon completely
same,IC50,GII protease,40.6 µM
same,IC50,GV protease,32.5 µM
same,IC50,GI.1 protease,34 µM
